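Method: 48-hour compound exposure of cells in 96-well plates, five concentrations, linear interpolation of endpoints. Here, GI50 denotes the concentration required for 50% inhibition of growth. TGI denotes the concentration required for complete inhibition of growth.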
Assays:
Test in all cases: NCI tumour cell line growth inhibition, 48 h
[1] = system: 786-0 renal
[2] = system: A498 renal
[3] = system: A549 NSCLC
[4] = system: ACHN renal
[5] = system: BT-549 breast
[6] = system: CAKI-1 renal
[7] = system: CCRF-CEM leukemia
[8] = system: COLO 205 colon
[9] = system: DU-145 prostate
[10] = system: EKVX NSCLC
[11] = system: HCC-2998 colon
[12] = system: HCT-116 colon
[13] = system: HCT-15 colon
[14] = system: HL-60(TB) leukemia
[15] = system: HOP-62 NSCLC
[16] = system: HOP-92 NSCLC
[17] = system: HS 578T breast
[18] = system: HT29 colon
[19] = system: IGROV1 ovarian
[20] = system: K-562 leukemia
[21] = system: KM12 colon
[22] = system: LOX IMVI melanoma
[23] = system: M14 melanoma
[24] = system: MALME-3M melanoma
[25] = system: MCF7 breast
[26] = system: MDA-MB-231 breast
[27] = system: MDA-MB-435
[28] = system: MOLT-4 leukemia
[29] = system: NCI-H226 lung
[30] = system: NCI-H23 lung
[31] = system: NCI-H460 lung
[32] = system: NCI-H522 lung
[33] = system: NCI/ADR-RES ovarian
[34] = system: OVCAR-3 ovarian
[35] = system: OVCAR-4 ovarian
[36] = system: OVCAR-5 ovarian
[37] = system: OVCAR-8 ovarian
[38] = system: PC-3 prostate
[39] = system: RPMI-8226 leukemia
[40] = system: RXF 393 renal
[41] = system: SF-268 CNS
[42] = system: SF-295 CNS
[43] = system: SF-539 CNS
[44] = system: SK-MEL-2 melanoma
[45] = system: SK-MEL-28 melanoma
[46] = system: SK-MEL-5 melanoma
[47] = system: SK-OV-3 ovarian
[48] = system: SN12C renal
[49] = system: SNB-19 CNS
[50] = system: SNB-75 CNS
[51] = system: SR leukemia
[52] = system: SW-620 colon
[53] = system: T-47D breast
[54] = system: TK-10 renal
[55] = system: U251 CNS
[56] = system: UACC-257 melanoma
[57] = system: UACC-62 melanoma
[58] = system: UO-31 renal
[59] = system: MDA-N

In the case of `Cc1nc(N2CCC3(CC2)CO[C@@H](C)[C@H]3N)c(CO)nc1Sc1ccnc(N)c1Cl`, the GI50 [1] was 12.8 µM, the TGI [1] was greater than 100 µM and the GI50 [2] was 0.657 µM. The TGI [2] was greater than 100 µM, the GI50 [3] was greater than 100 µM and the TGI [3] was greater than 100 µM. It also gave a GI50 [4] of 4.81 µM, a TGI [4] greater than 100 µM and a GI50 [5] of 6.56 µM. For the same molecule, the TGI [5] was greater than 100 µM, the GI50 [6] was 0.194 µM and the TGI [6] was greater than 100 µM. For the same molecule, the GI50 [7] was greater than 91.3 µM, the TGI [7] was greater than 100 µM and the GI50 [8] was greater than 73.4 µM. For the same molecule, the TGI [8] was greater than 100 µM, the GI50 [9] was 45.3 µM and the TGI [9] was greater than 100 µM. For the same molecule, the GI50 [10] was 0.449 µM, the TGI [10] was greater than 100 µM and the GI50 [11] was greater than 100 µM. For the same molecule, the TGI [11] was greater than 100 µM, the GI50 [12] was 59.7 µM and the TGI [12] was greater than 100 µM. It also gave a GI50 [13] greater than 100 µM, a TGI [13] greater than 100 µM and a GI50 [14] greater than 100 µM. For the same molecule, the TGI [14] was greater than 100 µM, the GI50 [15] was 28 µM and the TGI [15] was greater than 100 µM. It also gave a GI50 [16] of 0.184 µM, a TGI [16] of 2.12 µM and a GI50 [17] of 11 µM. For the same molecule, the TGI [17] was 99.1 µM, the GI50 [18] was greater than 100 µM and the TGI [18] was greater than 100 µM. It also gave a GI50 [19] of 0.629 µM, a TGI [19] greater than 100 µM and a GI50 [20] of 0.305 µM. It also gave a TGI [20] greater than 100 µM, a GI50 [21] of 2.21 µM and a TGI [21] greater than 100 µM. The GI50 [22] was 72.4 µM, the TGI [22] was greater than 100 µM and the GI50 [23] was greater than 100 µM. The TGI [23] was greater than 100 µM, the GI50 [24] was greater than 100 µM and the TGI [24] was greater than 100 µM. It also gave a GI50 [25] greater than 92.4 µM, a TGI [25] greater than 100 µM and a GI50 [26] greater than 100 µM. For the same molecule, the TGI [26] was greater than 100 µM, the GI50 [27] was greater than 100 µM and the TGI [27] was greater than 100 µM. The GI50 [28] was greater than 100 µM, the TGI [28] was greater than 100 µM and the GI50 [29] was 2.14 µM. The TGI [29] was greater than 100 µM, the GI50 [30] was 0.329 µM and the TGI [30] was greater than 100 µM. The GI50 [31] was greater than 100 µM, the TGI [31] was greater than 100 µM and the GI50 [32] was 1.32 µM. It also gave a TGI [32] greater than 100 µM, a GI50 [33] of 47.3 µM and a TGI [33] greater than 100 µM. The GI50 [34] was greater than 85.3 µM, the TGI [34] was greater than 100 µM and the GI50 [35] was 22.4 µM. The TGI [35] was greater than 100 µM, the GI50 [36] was greater than 100 µM and the TGI [36] was greater than 100 µM. For the same molecule, the GI50 [37] was 75.6 µM, the TGI [37] was greater than 100 µM and the GI50 [38] was greater than 100 µM. For the same molecule, the TGI [38] was greater than 100 µM, the GI50 [39] was 49.3 µM and the TGI [39] was greater than 100 µM. For the same molecule, the GI50 [40] was 2.53 µM, the TGI [40] was greater than 30.6 µM and the GI50 [41] was 12.8 µM. For the same molecule, the TGI [41] was greater than 100 µM, the GI50 [42] was 26.6 µM and the TGI [42] was greater than 100 µM. The GI50 [43] was 7.43 µM, the TGI [43] was greater than 100 µM and the GI50 [44] was greater than 100 µM. The TGI [44] was greater than 100 µM, the GI50 [45] was greater than 100 µM and the TGI [45] was greater than 100 µM. For the same molecule, the GI50 [46] was 14.1 µM, the TGI [46] was 35 µM and the GI50 [47] was 0.789 µM. It also gave a TGI [47] greater than 100 µM, a GI50 [48] of 12.2 µM and a TGI [48] greater than 100 µM. For the same molecule, the GI50 [49] was 14.8 µM, the TGI [49] was greater than 100 µM and the GI50 [50] was 0.518 µM. It also gave a TGI [50] greater than 100 µM, a GI50 [51] of 11.9 µM and a TGI [51] greater than 100 µM. For the same molecule, the GI50 [52] was greater than 100 µM, the TGI [52] was greater than 100 µM and the GI50 [53] was 32.4 µM. The TGI [53] was greater than 100 µM, the GI50 [54] was 0.336 µM and the TGI [54] was greater than 100 µM. The GI50 [55] was 3.92 µM, the TGI [55] was greater than 100 µM and the GI50 [56] was greater than 90.4 µM. The TGI [56] was greater than 100 µM, the GI50 [57] was greater than 100 µM and the TGI [57] was greater than 100 µM. For the same molecule, the GI50 [58] was 0.973 µM and the TGI [58] was greater than 100 µM.

`NNC(=O)c1nnn(CCc2ccccc2)c1C(=O)NN` was tested, and the TGI [1] was greater than 100 µM, the TGI [3] was greater than 100 µM and the TGI [4] was greater than 100 µM. For the same molecule, the TGI [5] was greater than 100 µM, the TGI [6] was greater than 100 µM and the TGI [7] was greater than 100 µM. It also gave a TGI [8] greater than 100 µM, a TGI [9] greater than 100 µM and a TGI [10] greater than 100 µM. For the same molecule, the TGI [11] was greater than 100 µM, the TGI [12] was greater than 100 µM and the TGI [13] was greater than 100 µM. The TGI [14] was greater than 100 µM, the TGI [15] was greater than 100 µM and the TGI [18] was greater than 100 µM. For the same molecule, the TGI [20] was greater than 100 µM, the TGI [21] was greater than 100 µM and the TGI [22] was greater than 100 µM. It also gave a TGI [23] greater than 100 µM, a TGI [24] greater than 100 µM and a TGI [25] greater than 100 µM. It also gave a TGI [26] greater than 100 µM, a TGI [27] greater than 100 µM and a TGI [59] greater than 100 µM. The TGI [28] was greater than 100 µM, the TGI [30] was greater than 100 µM and the TGI [31] was greater than 100 µM. The TGI [33] was greater than 100 µM, the TGI [34] was greater than 100 µM and the TGI [35] was greater than 100 µM. It also gave a TGI [36] greater than 100 µM, a TGI [37] greater than 100 µM and a TGI [38] greater than 100 µM. The TGI [39] was greater than 100 µM, the TGI [42] was greater than 100 µM and the TGI [44] was greater than 100 µM. It also gave a TGI [45] greater than 100 µM, a TGI [46] greater than 100 µM and a TGI [48] greater than 100 µM. The TGI [49] was greater than 100 µM, the TGI [51] was greater than 100 µM and the TGI [54] was greater than 100 µM. It also gave a TGI [55] greater than 100 µM, a TGI [56] greater than 100 µM and a TGI [58] greater than 100 µM.

Source: PubChem BioAssay (NCI)
